Our source for the inhibition values is ChEMBL document CHEMBL5665443, “Enzyme Inhibitor Single Concentration assay results for EUbOPEN Chemogenomics Library” (2024).

A word on the inhibition: it is the drop in the measured response relative to a control, in per cent.

Assay [1] deals with Methyl-CpG-binding domain protein 4 (Homo sapiens) (UniProt O95243). To be noted: Compound Concentration 10.0 uM.
Description: Inhibition of MBD4 by quantifying inhibition of MBD4-mediated cleavage and dissociation of quenched duplex DNA oligonucleotides, measured as fluorescence at 594 nm. To generate a functional strand incision and increase turn-over this assay is coupled to APE1.
Assay [2] concerns the target Endonuclease 8-like 1 (Homo sapiens) (UniProt Q96FI4). To be noted: Compound Concentration 10.0 uM, Hit No.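 Further: fluorescence at 594 nm from quenched duplex DNA oligonucleotides released by NEIL1 cleavage and strand separation, reported as reduction of this enzyme activity.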
Description: Inhibition of NEIL1 by quantifying inhibition of NEIL1-mediated cleavage and dissociation of quenched duplex DNA oligonucleotides, measured as fluorescence at 594 nm.
Assay [3] has as its target G/T mismatch-specific thymine DNA glycosylase (Homo sapiens) (UniProt Q13569). To be noted: Compound Concentration 10.0 uM.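 Further: human TDG cleavage of quenched duplex DNA oligonucleotides coupled to APE1, strand release read as fluorescence at 594 nm, inhibition of TDG activity.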
Description: Inhibition of TDG by quantifying inhibition of TDG-mediated cleavage and dissociation of quenched duplex DNA oligonucleotides, measured as fluorescence at 594 nm. To generate a functional strand incision and increase turn-over this assay is coupled to APE1.
Assay [4] deals with DNA-3-methyladenine glycosylase (Homo sapiens) (UniProt P29372). To be noted: Compound Concentration 10.0 uM.
Chain of DNA-3-methyladenine glycosylase (Homo sapiens) (P29372 whole entry): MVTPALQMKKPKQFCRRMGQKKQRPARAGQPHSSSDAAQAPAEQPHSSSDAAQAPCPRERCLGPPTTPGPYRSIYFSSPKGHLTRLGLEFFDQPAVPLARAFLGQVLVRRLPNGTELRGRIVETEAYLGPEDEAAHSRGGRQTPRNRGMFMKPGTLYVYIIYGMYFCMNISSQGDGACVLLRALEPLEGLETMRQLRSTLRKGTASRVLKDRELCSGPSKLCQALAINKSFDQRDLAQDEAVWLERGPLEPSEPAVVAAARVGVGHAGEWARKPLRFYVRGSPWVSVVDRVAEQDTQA
Description: Inhibition of MPG by quantifying inhibition of MPG-mediated cleavage and dissociation of quenched duplex DNA oligonucleotides, measured as fluorescence at 594 nm. To generate a functional strand incision and increase turn-over this assay is coupled to APE1.
The target in assay [5] is T1, Adenine DNA glycosylase (Homo sapiens) (UniProt Q9UIF7).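 Further: human MUTYH activity read as 594 nm fluorescence from cleavage and release of a quenched DNA duplex, coupled with APE1 for strand incision, lower signal meaning inhibition.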
T1 sequence (whole entry): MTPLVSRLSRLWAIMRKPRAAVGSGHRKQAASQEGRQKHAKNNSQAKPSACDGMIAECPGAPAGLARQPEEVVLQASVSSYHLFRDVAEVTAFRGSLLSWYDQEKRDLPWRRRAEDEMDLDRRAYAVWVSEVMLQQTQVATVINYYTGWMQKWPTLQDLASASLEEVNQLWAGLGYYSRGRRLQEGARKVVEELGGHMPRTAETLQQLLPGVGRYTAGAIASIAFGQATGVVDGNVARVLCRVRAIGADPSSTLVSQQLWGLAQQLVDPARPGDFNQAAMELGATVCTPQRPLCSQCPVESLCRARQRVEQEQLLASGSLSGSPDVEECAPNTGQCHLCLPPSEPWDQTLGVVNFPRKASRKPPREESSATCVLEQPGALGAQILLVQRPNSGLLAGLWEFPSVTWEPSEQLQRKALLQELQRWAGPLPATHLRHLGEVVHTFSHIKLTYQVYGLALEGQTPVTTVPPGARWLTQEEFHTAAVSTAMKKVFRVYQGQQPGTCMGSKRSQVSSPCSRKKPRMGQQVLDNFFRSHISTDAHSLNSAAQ
To be noted: Compound Concentration 10.0 uM.
Description: Inhibition of MUTYH by quantifying inhibition of MUTYH-mediated cleavage and dissociation of quenched duplex DNA oligonucleotides, measured as fluorescence at 594 nm. To generate a functional strand incision and increase turn-over this assay is coupled to APE1.

Assay [6] deals with T2, Endonuclease III-like protein 1 (Homo sapiens) (UniProt P78549).
T2 sequence (whole entry): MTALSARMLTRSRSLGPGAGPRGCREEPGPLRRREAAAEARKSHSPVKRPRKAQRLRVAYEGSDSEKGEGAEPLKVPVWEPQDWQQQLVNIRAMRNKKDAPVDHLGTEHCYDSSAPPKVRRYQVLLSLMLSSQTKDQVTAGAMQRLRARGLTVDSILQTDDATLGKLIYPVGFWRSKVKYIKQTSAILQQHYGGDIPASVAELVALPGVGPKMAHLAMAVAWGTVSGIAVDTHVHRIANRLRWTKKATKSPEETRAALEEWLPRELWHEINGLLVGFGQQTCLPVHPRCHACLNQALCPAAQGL
To be noted: Compound Concentration 10.0 uM, Hit No.
Description: Inhibition of NTHL1 by quantifying inhibition of NTHL1-mediated cleavage and dissociation of quenched duplex DNA oligonucleotides, measured as fluorescence at 594 nm.

Assay [7] concerns the target N-glycosylase/DNA lyase (Homo sapiens) (UniProt O15527). To be noted: Compound Concentration 10.0 uM.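 Further: OGG1 cleavage of a quenched duplex DNA oligonucleotide, coupled to APE1 for strand incision, read as fluorescence at 594 nm.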
Description: Inhibition of OGG1 by quantifying inhibition of OGG1-mediated cleavage and dissociation of quenched duplex DNA oligonucleotides, measured as fluorescence at 594 nm. To generate a functional strand incision and increase turn-over this assay is coupled to APE1.
Assay [8] deals with T3, Endonuclease 8-like 2 (Homo sapiens) (UniProt Q969S2).
T3 sequence (whole entry): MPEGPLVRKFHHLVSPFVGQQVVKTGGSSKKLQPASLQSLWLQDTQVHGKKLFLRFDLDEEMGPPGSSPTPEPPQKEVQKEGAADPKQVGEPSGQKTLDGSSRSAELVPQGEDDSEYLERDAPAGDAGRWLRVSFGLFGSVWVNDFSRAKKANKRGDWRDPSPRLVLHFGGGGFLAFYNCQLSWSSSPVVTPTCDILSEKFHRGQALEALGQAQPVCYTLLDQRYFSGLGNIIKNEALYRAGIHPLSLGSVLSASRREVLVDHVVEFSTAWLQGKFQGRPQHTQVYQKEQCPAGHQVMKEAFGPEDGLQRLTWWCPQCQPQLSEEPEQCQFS
To be noted: Compound Concentration 10.0 uM, Hit No.
Description: Inhibition of NEIL2 by quantifying inhibition of NEIL2-mediated cleavage and dissociation of quenched duplex DNA oligonucleotides, measured as fluorescence at 594 nm.

In assay [9] the target is Uracil-DNA glycosylase (Homo sapiens) (UniProt P13051). To be noted: Compound Concentration 10.0 uM, Hit No.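 Further: UNG excision on a quenched double-stranded DNA oligo probe, with APE1 added for strand incision and turnover, read as fluorescence at 594 nm as strands separate.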
Chain of Uracil-DNA glycosylase (Homo sapiens) (P13051 whole entry): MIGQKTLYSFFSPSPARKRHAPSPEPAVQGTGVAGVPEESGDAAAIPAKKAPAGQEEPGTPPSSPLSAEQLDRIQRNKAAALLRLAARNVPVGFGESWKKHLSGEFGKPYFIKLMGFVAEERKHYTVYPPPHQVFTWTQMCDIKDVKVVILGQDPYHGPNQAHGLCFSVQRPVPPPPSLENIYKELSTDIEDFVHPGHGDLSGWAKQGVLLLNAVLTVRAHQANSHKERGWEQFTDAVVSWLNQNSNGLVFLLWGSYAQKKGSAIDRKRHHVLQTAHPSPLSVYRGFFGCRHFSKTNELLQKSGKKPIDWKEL
Description: Inhibition of UNG by quantifying inhibition of UNG-mediated cleavage and dissociation of quenched duplex DNA oligonucleotides, measured as fluorescence at 594 nm. To generate a functional strand incision and increase turn-over this assay is coupled to APE1.

Chain of N-glycosylase/DNA lyase (Homo sapiens) (O15527 whole entry): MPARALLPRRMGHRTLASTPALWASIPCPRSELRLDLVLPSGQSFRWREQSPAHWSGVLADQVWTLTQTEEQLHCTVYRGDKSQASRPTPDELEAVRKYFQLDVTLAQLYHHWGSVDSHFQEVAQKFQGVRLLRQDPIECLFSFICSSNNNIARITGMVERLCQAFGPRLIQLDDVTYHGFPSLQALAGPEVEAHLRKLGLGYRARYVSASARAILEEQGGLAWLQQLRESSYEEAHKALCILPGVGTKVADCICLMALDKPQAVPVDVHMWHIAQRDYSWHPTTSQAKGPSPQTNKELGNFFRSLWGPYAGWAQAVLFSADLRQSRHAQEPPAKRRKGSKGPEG
Chain of Endonuclease 8-like 1 (Homo sapiens) (Q96FI4 whole entry): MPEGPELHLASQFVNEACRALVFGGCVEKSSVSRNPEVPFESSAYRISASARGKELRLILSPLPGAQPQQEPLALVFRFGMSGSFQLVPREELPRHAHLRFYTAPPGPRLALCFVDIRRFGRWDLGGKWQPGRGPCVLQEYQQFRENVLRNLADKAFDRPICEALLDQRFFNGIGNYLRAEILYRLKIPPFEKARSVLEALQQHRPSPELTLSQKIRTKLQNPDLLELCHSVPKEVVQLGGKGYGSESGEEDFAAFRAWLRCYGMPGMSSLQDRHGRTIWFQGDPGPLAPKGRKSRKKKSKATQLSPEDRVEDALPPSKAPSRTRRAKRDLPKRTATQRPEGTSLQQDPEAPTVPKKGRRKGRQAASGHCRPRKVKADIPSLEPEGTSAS
Chain of Methyl-CpG-binding domain protein 4 (Homo sapiens) (O95243 whole entry, the tested form may be a part): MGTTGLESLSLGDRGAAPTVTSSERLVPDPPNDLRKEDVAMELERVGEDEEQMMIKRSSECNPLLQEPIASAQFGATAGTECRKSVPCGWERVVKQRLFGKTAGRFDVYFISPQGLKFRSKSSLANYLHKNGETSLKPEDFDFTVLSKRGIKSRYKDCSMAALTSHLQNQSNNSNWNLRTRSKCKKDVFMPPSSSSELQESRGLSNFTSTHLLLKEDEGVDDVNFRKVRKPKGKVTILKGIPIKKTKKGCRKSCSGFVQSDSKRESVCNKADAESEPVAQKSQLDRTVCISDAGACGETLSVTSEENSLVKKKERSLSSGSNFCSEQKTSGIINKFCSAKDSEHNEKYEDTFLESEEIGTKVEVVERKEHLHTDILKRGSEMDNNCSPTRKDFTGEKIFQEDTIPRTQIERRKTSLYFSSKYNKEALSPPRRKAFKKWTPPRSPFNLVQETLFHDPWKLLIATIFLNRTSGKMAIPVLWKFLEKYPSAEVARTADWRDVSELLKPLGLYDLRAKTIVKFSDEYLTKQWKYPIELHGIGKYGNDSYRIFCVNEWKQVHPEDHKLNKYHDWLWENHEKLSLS
Chain of G/T mismatch-specific thymine DNA glycosylase (Homo sapiens) (Q13569 whole entry): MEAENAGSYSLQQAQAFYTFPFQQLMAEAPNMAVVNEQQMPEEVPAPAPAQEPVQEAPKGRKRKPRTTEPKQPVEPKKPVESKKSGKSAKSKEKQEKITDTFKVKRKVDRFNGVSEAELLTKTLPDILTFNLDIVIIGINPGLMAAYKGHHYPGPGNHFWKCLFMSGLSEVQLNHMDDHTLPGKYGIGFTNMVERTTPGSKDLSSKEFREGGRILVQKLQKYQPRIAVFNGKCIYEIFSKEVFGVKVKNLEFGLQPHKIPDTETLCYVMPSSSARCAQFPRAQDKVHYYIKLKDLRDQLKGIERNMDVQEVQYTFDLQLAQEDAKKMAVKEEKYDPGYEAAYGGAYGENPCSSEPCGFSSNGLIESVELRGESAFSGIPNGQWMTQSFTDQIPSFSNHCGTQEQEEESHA

Take `CCNC(=O)[C@H]1O[C@@H](n2cnc3c(N)nc(NCCc4ccc(CCC(=O)O)cc4)nc32)[C@H](O)[C@@H]1O`: the inhibition in assay [1] (Hit No) was 17.2%; in [2], 3.42%; in [3] (Hit No) it was 0.161%; in assay [4] (Hit No), -2.22%; in [5] (Hit No), 11.8%; in assay [6] it was 1.39%. Moreover, the inhibition in [7] (Hit No) is -9.97%; in assay [8], -6.46%; in assay [9], -6.16%.

On to `CCCCCCCCCCCCCCC[C@@H](O)[C@@H](N)COP(=O)(O)O`, for which the inhibition is -8.45% in assay [1] (Hit No); 6.76% in [2]; 3% in assay [3] (Hit No); 9.63% in assay [4] (Hit No); -9.71% in assay [5] (Hit No); 5.59% in assay [6]. For the same compound, the inhibition in assay [7] (Hit No) was -0.598%; in assay [8], 4.76%; in assay [9], -5.95%.

As for `O=C(O)c1cccc(/C=C2/C[C@@H]3[C@@H](/C=C/[C@H](O)C4CCCCC4)[C@H](O)C[C@@H]3O2)c1`, the inhibition in [1] (Hit No) is 16.8%; in [2], -8.73%; in [3] (Hit No), 21.2%; in assay [4] (Hit No), 18.3%; in assay [5] (Hit No) it was 18.1%; in assay [6] it was 15.4%. Further, the inhibition in assay [7] (Hit No) is -8.69%; in assay [8], -5.7%; in assay [9], -4.36%.

For the compound `O=C(O)CCCCCC[C@H]1C(=O)NC(=O)N1CCC(O)C1CCCCC1` (some centres undefined), the inhibition in assay [1] (Hit No) is 9.44%; in [2] it was -4.58%; in assay [3] (Hit No) it was 11%; in assay [4] (Hit No), -5.01%; in [5] (Hit No) it was 39.4%; in [6] it was 23.7%. Also, the inhibition was -6.34% in [7] (Hit No), -1.37% in assay [8] and -5.39% in [9].

For `C[S+]([O-])c1ccc(-c2nc(-c3ccc(F)cc3)c(-c3ccncc3)[nH]2)cc1` (centres undefined), the inhibition is 16.5% in assay [1] (Hit No); -8.51% in assay [2]; 17.7% in assay [3] (Hit No); 10.5% in assay [4] (Hit No); 13.8% in assay [5] (Hit No); 15.1% in assay [6]. For the same compound, the inhibition in assay [7] (Hit No) was 6.37%; in assay [8], -0.483%; in [9] it was -3.45%.

Consider `CN1CCc2cc(Cl)c(O)cc2[C@@H](c2ccccc2)C1`, for which the inhibition in assay [1] (Hit No) was 14.5%; in assay [2] it was -6.51%; in assay [3] (Hit No) it was 3.73%; in [4] (Hit No), 10.9%; in assay [5] (Hit No), 14.8%; in [6] it was 4.7%. Besides, the inhibition is -2.12% in [7] (Hit No), 3.22% in assay [8] and -3.84% in assay [9].

`NCCCCN(Cc1nc2ccccc2[nH]1)[C@H]1CCCc2cccnc21`: the inhibition in assay [1] (Hit No) is -9.01%; in assay [2], 10.7%; in [3] (Hit No) it was 0.598%; in [4] (Hit No), -6.17%; in assay [5] (Hit No), 5.47%; in assay [6] it was -0.258%. Also, the figures for the inhibition in [7] (Hit No), in assay [8] and in [9] were -6.41%, 6.78% and -4.22%, respectively.

In the case of `CCCCCCNC(=O)Nc1ccc(S(=O)(=O)Nc2ccc(CCNC[C@H](O)COc3ccc(O)cc3)cc2)cc1`, the inhibition in assay [1] (Hit Yes) was 102%; in [2], -4.58%; in assay [3] (Hit Yes), 105%; in assay [4] (Hit Yes), 105%; in [5] (Hit Yes) it was 107%; in assay [6], 10.5%. In addition, the inhibition in assay [7] (Hit No) was 3.62%; in assay [8], -3.66%; in assay [9], 5.25%.

Consider `CCCCC/C=C\C/C=C\C/C=C\C/C=C\CCCC(=O)OC(CO)CO`, for which the inhibition in assay [1] (Hit No) was 28.4%; in assay [2], 4.39%; in assay [3] (Hit No), 27%; in [4] (Hit No), 3.34%; in [5] (Hit No), 14.2%; in assay [6], 9.99%. For the same compound, the values for the inhibition in assay [7] (Hit No), in assay [8] and in assay [9] were 1.41%, 12% and -9.11%, respectively.

`CC(C)C[C@H](NC(=O)[C@H](CC(N)=O)NC(=O)[C@@H]1CCCN1C(=O)[C@@H](N)C(C)C)C(=O)N1CCC[C@H]1C(=O)N[C@@H](CCC(N)=O)C(=O)N[C@@H](CCCNC(=N)N)C(=O)N[C@@H](Cc1ccccc1)C(N)=O`: the inhibition is 7.14% in [1] (Hit No); 5.49% in [2]; 4.58% in assay [3] (Hit No); 2.54% in assay [4] (Hit No); -3.17% in assay [5] (Hit No); 17.1% in assay [6]. The inhibition in assay [7] (Hit No) was -4.66%; in assay [8], 4.75%; in assay [9], -4.09%.

Take `c1ccc(Cn2c(N3CCNCC3)nc3ccccc32)cc1`: the inhibition in [1] (Hit No) was -1.45%; in [2], 3.42%; in [3] (Hit No), -3.94%; in assay [4] (Hit No), 2.45%; in assay [5] (Hit No), 0.413%; in assay [6], 25.3%. Moreover, the inhibition in assay [7] (Hit No) is -7.05%; in assay [8] it was -2.13%; in [9], -7.26%.

As to `CC1(C)CC(=O)c2c(SCCO)sc(-c3nccs3)c2C1`, the inhibition in [1] (Hit No) is 23.5%; in [2], -2.21%; in assay [3] (Hit No), 13.8%; in assay [4] (Hit No), 8.86%; in assay [5] (Hit No), 15.5%; in [6], 28.6%. The inhibition is -7.89% in [7] (Hit No), 1.94% in [8] and -4.5% in assay [9].

As to `Clc1ccc(C2CC3CCC2N3)cn1` (centres undefined), the inhibition in [1] (Hit No) is 11.8%; in assay [2], -1.03%; in [3] (Hit No), 20.8%; in [4] (Hit No), -6.44%; in assay [5] (Hit No), -3.17%; in [6] it was 7.17%. Besides, the inhibition is -8.75% in [7] (Hit No), -3.41% in [8] and -9.39% in [9].

In the case of `O=c1cc(-c2cc(F)c(Cl)nc2Cl)[nH]c2c(-c3ccccc3)c(C(F)(F)F)nn12`, the inhibition in assay [1] (Hit No) is 66.3%; in assay [2] it was -6.07%; in assay [3] (Hit No) it was 54.8%; in [4] (Hit No) it was 43.4%; in assay [5] (Hit No), 63.1%; in [6], 8%. Besides, the results for the inhibition in assay [7] (Hit Yes), in assay [8] and in [9] were 60.4%, 16% and 1.49%, respectively.

With `COc1cccc(OC)c1-c1cc(C(=O)NC2(C(=O)O)C3CC4CC(C3)CC2C4)nn1-c1ccnc2cc(Cl)ccc12` (centres undefined), the inhibition is 44.5% in assay [1] (Hit No); -4.95% in assay [2]; 45.2% in [3] (Hit No); 18.6% in assay [4] (Hit No); 53.6% in assay [5] (Hit No); 24.6% in assay [6]. The inhibition in [7] (Hit No) was 23.9%; in assay [8], -7.72%; in assay [9], -7.21%.

Take `CCCN(CCc1cccs1)[C@H]1CCc2c(O)cccc2C1`: the inhibition in assay [1] (Hit No) is 27.8%; in assay [2] it was -8.88%; in [3] (Hit No), 8.18%; in assay [4] (Hit No), 14.7%; in assay [5] (Hit No) it was 14.9%; in assay [6], 18.7%. The inhibition was -7.03% in assay [7] (Hit No), -1.88% in assay [8] and -4.64% in assay [9].
